Measurements from the NIST ThermoML archive (doi:10.1021/je400486p).

Assay: xn = mol fraction of the nth substance listed
Settings: 101.3 kPa, Liquid; for viscosity: Concentric cylinders viscometry; for mass density: Vibrating tube method

COCCOCCOCCOCCOC [2,5,8,11,14-pentaoxapentadecane] + CCC(C)O
Settings | mass density [kg/m3] | viscosity [mPa·s]
288.15 K, x2 = 0 | 1015.63 | 4.341
288.15 K, x2 = 0.1007 | 1006.23 | 4.092
288.15 K, x2 = 0.2003 | 995.702 | 3.792
288.15 K, x2 = 0.3015 | 983.46 | 3.531
288.15 K, x2 = 0.3991 | 969.921 | 3.342
288.15 K, x2 = 0.5011 | 953.53 | 3.157
288.15 K, x2 = 0.6024 | 934.399 | 2.972
288.15 K, x2 = 0.6997 | 912.674 | 2.853
288.15 K, x2 = 0.7998 | 885.897 | 2.874
288.15 K, x2 = 0.9004 | 852.63 | 3.166
293.15 K, x2 = 0 | 1011 | 3.834
293.15 K, x2 = 0.1007 | 1001.61 | 3.582
293.15 K, x2 = 0.2003 | 991.093 | 3.32
293.15 K, x2 = 0.3015 | 978.877 | 3.099
293.15 K, x2 = 0.3991 | 965.365 | 2.941
293.15 K, x2 = 0.5011 | 949.011 | 2.776
293.15 K, x2 = 0.6024 | 929.939 | 2.61
293.15 K, x2 = 0.6997 | 908.32 | 2.498
293.15 K, x2 = 0.7998 | 881.561 | 2.497
293.15 K, x2 = 0.9004 | 848.418 | 2.705
298.15 K, x2 = 0 | 1006.36 | 3.38
298.15 K, x2 = 0.1007 | 996.991 | 3.158
298.15 K, x2 = 0.2003 | 986.495 | 2.937
298.15 K, x2 = 0.3015 | 974.305 | 2.75
298.15 K, x2 = 0.3991 | 960.825 | 2.603
298.15 K, x2 = 0.5011 | 944.498 | 2.461
298.15 K, x2 = 0.6024 | 925.479 | 2.316
298.15 K, x2 = 0.6997 | 903.877 | 2.21
298.15 K, x2 = 0.7998 | 877.228 | 2.187
298.15 K, x2 = 0.9004 | 844.144 | 2.337
303.15 K, x2 = 0 | 1001.73 | 3.004
303.15 K, x2 = 0.1007 | 992.377 | 2.805
303.15 K, x2 = 0.2003 | 981.894 | 2.627
303.15 K, x2 = 0.3015 | 969.723 | 2.472
303.15 K, x2 = 0.3991 | 956.258 | 2.344
303.15 K, x2 = 0.5011 | 939.966 | 2.205
303.15 K, x2 = 0.6024 | 920.978 | 2.068
303.15 K, x2 = 0.6997 | 899.43 | 1.967
303.15 K, x2 = 0.7998 | 872.81 | 1.933
303.15 K, x2 = 0.9004 | 839.81 | 2.037
308.15 K, x2 = 0 | 997.104 | 2.691
308.15 K, x2 = 0.1007 | 987.755 | 2.513
308.15 K, x2 = 0.2003 | 977.28 | 2.363
308.15 K, x2 = 0.3015 | 965.119 | 2.229
308.15 K, x2 = 0.3991 | 951.674 | 2.111
308.15 K, x2 = 0.5011 | 935.407 | 1.984
308.15 K, x2 = 0.6024 | 916.445 | 1.859
308.15 K, x2 = 0.6997 | 894.917 | 1.762
308.15 K, x2 = 0.7998 | 868.357 | 1.72
308.15 K, x2 = 0.9004 | 835.418 | 1.786
313.15 K, x2 = 0 | 992.481 | 2.426
313.15 K, x2 = 0.1007 | 983.135 | 2.269
313.15 K, x2 = 0.2003 | 972.669 | 2.139
313.15 K, x2 = 0.3015 | 960.509 | 2.022
313.15 K, x2 = 0.3991 | 947.072 | 1.914
313.15 K, x2 = 0.5011 | 930.813 | 1.796
313.15 K, x2 = 0.6024 | 911.86 | 1.681
313.15 K, x2 = 0.6997 | 890.367 | 1.59
313.15 K, x2 = 0.7998 | 863.83 | 1.54
313.15 K, x2 = 0.9004 | 830.95 | 1.575
318.15 K, x2 = 0 | 987.859 | 2.199
318.15 K, x2 = 0.1007 | 978.511 | 2.069
318.15 K, x2 = 0.2003 | 968.041 | 1.949
318.15 K, x2 = 0.3015 | 955.883 | 1.836
318.15 K, x2 = 0.3991 | 942.446 | 1.73
318.15 K, x2 = 0.5011 | 926.193 | 1.629
318.15 K, x2 = 0.6024 | 907.25 | 1.529
318.15 K, x2 = 0.6997 | 885.759 | 1.445
318.15 K, x2 = 0.7998 | 859.246 | 1.385
318.15 K, x2 = 0.9004 | 826.396 | 1.397
323.15 K, x2 = 0 | 983.234 | 2.006
323.15 K, x2 = 0.1007 | 973.877 | 1.892
323.15 K, x2 = 0.2003 | 963.397 | 1.787
323.15 K, x2 = 0.3015 | 951.237 | 1.687
323.15 K, x2 = 0.3991 | 937.792 | 1.591
323.15 K, x2 = 0.5011 | 921.533 | 1.495
323.15 K, x2 = 0.6024 | 902.591 | 1.402
323.15 K, x2 = 0.6997 | 881.097 | 1.32
323.15 K, x2 = 0.7998 | 854.581 | 1.259
323.15 K, x2 = 0.9004 | 821.735 | 1.243
